Target: human PCSK9 (Homo sapiens, UniProt Q8NBP7)
Test: PCSK9 ligand binding TR-FRET assay (interference with binding of human PCSK9 to human LDLR)
Conditions: for Max % inhibition: PCSK9 FRET assay, efficacy (Amax), 100% = 1 uM unlabeled human PCSK9, 0% = DMSO; for IC50: TR-FRET, human PCSK9 Alexa Fluor 647 / human LDLR extracellular domain-Europium Kryptate, read-out: PCSK9 FRET Assay IC50
Outline: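 Threefold compound dilutions were pre-incubated 30 min with PCSK9, after which 4 nM Europium Kryptate-tagged human LDLR ectodomain was added for a further 2 h.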

Sequence of human PCSK9 (Q8NBP7 153-692): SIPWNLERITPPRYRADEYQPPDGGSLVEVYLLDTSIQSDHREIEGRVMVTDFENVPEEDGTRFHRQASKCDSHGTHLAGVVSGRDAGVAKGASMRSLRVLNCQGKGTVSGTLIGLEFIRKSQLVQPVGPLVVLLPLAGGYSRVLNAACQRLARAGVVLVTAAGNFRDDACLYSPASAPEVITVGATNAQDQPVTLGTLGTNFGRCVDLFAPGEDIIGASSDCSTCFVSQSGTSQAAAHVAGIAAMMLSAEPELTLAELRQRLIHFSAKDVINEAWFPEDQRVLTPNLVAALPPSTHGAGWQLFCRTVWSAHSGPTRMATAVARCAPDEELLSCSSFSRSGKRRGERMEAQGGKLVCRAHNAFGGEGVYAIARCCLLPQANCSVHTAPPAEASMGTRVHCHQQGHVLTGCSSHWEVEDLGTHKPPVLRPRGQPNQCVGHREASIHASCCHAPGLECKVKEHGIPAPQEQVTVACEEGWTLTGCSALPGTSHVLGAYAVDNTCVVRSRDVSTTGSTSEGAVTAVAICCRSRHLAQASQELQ
Sequence of human PCSK9 (Q8NBP7 31-152 partner limits assumed): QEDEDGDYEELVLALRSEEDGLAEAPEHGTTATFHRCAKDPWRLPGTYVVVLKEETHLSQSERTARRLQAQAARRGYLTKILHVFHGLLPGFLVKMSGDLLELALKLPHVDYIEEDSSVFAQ

Structure (SMILES) | Max % inhibition | IC50
CC(O)c1ncc(-c2ccc(Oc3cc(Cl)ccc3CN3C(=O)C[C@@H](Cc4ccccc4)C(=O)N(C)[C@@H](C)CNC(=O)C[C@H](Cc4ccc(Cl)cc4)N(C)C(=O)[C@H](CO)NC(=O)[C@@H]3C)cc2)n1C (stereo partly drawn) [Compound 21, (2S,5S,8S,13S,16R)-16-benzyl-1-(4-chloro-2-(4-(2-(1-hydroxyethyl)-1-methyl-1H-imidazol-5-yl)phenoxy)benzyl)-8-(4-chlorobenzyl)-5-(hydroxymethyl)-2,7,13,14-tetramethyl-1,4,7,11,14-pentaazacyclooctadecane-3,6,10,15,18-pentaone] | 66.09% | 2.4 nM
COC[C@@H]1NC(=O)[C@H](C)N(Cc2ccc(Cl)cc2Oc2ccc(-c3cnc4c(c3)CNCC4)cc2)C(=O)C[C@@H](Cc2ccccc2)C(=O)N(C)[C@@H](C)CNC(=O)C[C@H](Cc2ccc(Cl)cc2)N(C)C1=O [Compound 115, (2S,5S,8S,13S,16R)-16-benzyl-1-(4-chloro-2-(4-(5,6,7,8-tetrahydro-1,6-naphthyridin-3-yl)phenoxy)benzyl)-8-(4-chlorobenzyl)-5-(methoxymethyl)-2,7,13,14-tetramethyl-1,4,7,11,14-pentaazacyclooctadecane-3,6,10,15,18-pentaone] | 72.72% | 5.3 nM
COC[C@@H]1NC(=O)[C@H](C)N(Cc2cccnc2Oc2ccc(-c3cnc(CN(C)C)n3C)cc2)C(=O)C[C@@H](Cc2ccccc2)C(=O)N(C)[C@@H](C)CNC(=O)C[C@H](Cc2ccc(Cl)cc2)N(C)C1=O [Compound 210, (2S,5S,8S,13S,16R)-16-benzyl-8-(4-chlorobenzyl)-1-((2-(4-(2-((dimethylamino)methyl)-1-methyl-1H-imidazol-5-yl)phenoxy)pyridin-3-yl)methyl)-5-(methoxymethyl)-2,7,13,14-tetramethyl-1,4,7,11,14-pentaazacyclooctadecane-3,6,10,15,18-pentaone] | 91.38% | 14.7 nM

Now those with a lower IC50, led by results:

Max % inhibition | IC50 | Structure (SMILES)
95.86% | 1 nM | COC[C@@H]1NC(=O)[C@H](C)N(Cc2c(F)cc(Cl)cc2Oc2ccc(-c3cnc(CN4CCCC4)n3C)cc2)C(=O)C[C@@H](Cc2ccccc2)C(=O)N(C)[C@@H](C)CNC(=O)C[C@H](Cc2ccc(Cl)cc2)N(C)C1=O [Compound 34, (2S,5S,8S,13S,16R)-16-benzyl-1-(4-chloro-2-fluoro-6-(4-(1-methyl-2-(pyrrolidin-1-ylmethyl)-1H-imidazol-5-yl)phenoxy)benzyl)-8-(4-chlorobenzyl)-5-(methoxymethyl)-2,7,13,14-tetramethyl-1,4,7,11,14-pentaazacyclooctadecane-3,6,10,15,18-pentaone]
102.44% | 1.4 nM | COC[C@@H]1NC(=O)[C@H](C)N(Cc2ccc(Cl)cc2Oc2ccc(-c3cnc(CN(C)C)n3C)cc2)C(=O)C[C@@H](Cc2cccc[n+]2[O-])C(=O)N(C)[C@H]2CCCC[C@@H]2NC(=O)C[C@H](Cc2ccc(Cl)cc2)N(C)C1=O [Compound 172, 2-(((4S,7S,10S,14R,16aS,20aS)-11-(4-chloro-2-(4-(2-((dimethylamino)methyl)-1-methyl-1H-imidazol-5-yl)phenoxy)benzyl)-4-(4-chlorobenzyl)-7-(methoxymethyl)-5,10,16-trimethyl-2,6,9,12,15-pentaoxodocosahydrobenzo[l][1,4,7,11,14]pentaazacyclooctadecin-14-yl)methyl)pyridine 1-oxide]
94.20% | 2.1 nM | COC[C@@H]1NC(=O)[C@H](CCCNC(=O)OC(C)(C)C)N(Cc2ccc(Cl)cc2Oc2ccc(-c3cnc(CN4CCCC4)n3C)cc2)C(=O)C[C@@H](Cc2ccccc2)C(=O)N(C)[C@H]2CCCC[C@@H]2NC(=O)C[C@H](Cc2ccc(Cl)cc2)N(C)C1=O [Compound 191, tert-butyl (3-((4S,7S,10S,14R,16aS,20aS)-14-benzyl-11-(4-chloro-2-(4-(1-methyl-2-(pyrrolidin-1-ylmethyl)-1H-imidazol-5-yl)phenoxy)benzyl)-4-(4-chlorobenzyl)-7-(methoxymethyl)-5,16-dimethyl-2,6,9,12,15-pentaoxodocosahydrobenzo[l][1,4,7,11,14]pentaazacyclooctadecin-10-yl)propyl)carbamate]
